Read-outs that look alike come from different tables or passages of the source.
Tests used:
[1] = system: Human primary keratinocytes (HEKa); experiment: HEKa cell viability
TAK1 = target: T1, TAK1 (Homo sapiens, UniProt O43318); experiment: KiNativ in situ kinome profiling in HEKa, TAK1; format: binding; settings: intact HEKa, 1 hr treatment, clinically-achievable concentration
T1 sequence (O43318 1-606): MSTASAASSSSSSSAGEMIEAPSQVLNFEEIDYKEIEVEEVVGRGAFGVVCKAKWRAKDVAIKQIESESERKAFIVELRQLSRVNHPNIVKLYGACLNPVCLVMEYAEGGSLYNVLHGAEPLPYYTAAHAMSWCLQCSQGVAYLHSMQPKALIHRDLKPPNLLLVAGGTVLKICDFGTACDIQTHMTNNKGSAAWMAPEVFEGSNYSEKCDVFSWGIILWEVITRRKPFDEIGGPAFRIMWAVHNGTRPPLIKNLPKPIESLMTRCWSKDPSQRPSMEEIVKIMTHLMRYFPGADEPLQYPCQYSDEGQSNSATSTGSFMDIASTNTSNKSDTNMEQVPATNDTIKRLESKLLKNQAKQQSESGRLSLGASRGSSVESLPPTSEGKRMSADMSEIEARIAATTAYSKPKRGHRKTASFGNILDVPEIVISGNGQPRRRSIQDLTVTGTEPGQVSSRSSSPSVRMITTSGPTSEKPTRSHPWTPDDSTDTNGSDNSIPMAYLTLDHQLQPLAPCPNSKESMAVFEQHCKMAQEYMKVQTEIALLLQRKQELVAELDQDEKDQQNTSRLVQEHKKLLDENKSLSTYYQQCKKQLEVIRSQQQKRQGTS

[2] = system: sorafenib uptake in HEKa (OATs; SLC22A); experiment: Inhibition of sorafenib uptake in HEKa by transporter inhibitors; format: cell-based, human; settings: OAT inhibitors 100 µM, sorafenib 1 µM, 15 min
[3] = system: A549, 7860, HepG2 and CHRF288-11 cell lines; experiment: In vitro antitumor efficacy of sorafenib with or without probenecid; format: cell-based, human; settings: probenecid 500 µM, sorafenib 0.1 – 100 µM, 72 hours
[4] = system: sorafenib accumulation in MPEK; experiment: Inhibition of sorafenib accumulation in MPEK by probenecid; format: cell-based, mouse; settings: probenecid 100 µM, sorafenib 1 µM, 15 min
HEKa = experiment: In vitro transport assay: intracellular drug accumulation in HEKa; format: in vitro ADME, human; settings: for intracellular accumulation / transport in HEKa (in words): kinase inhibitors 1 µM, 5 min
[5] = Plasma pharmacokinetic study of sorafenib; format: in vivo, C57BL6 mice; settings: sorafenib 60 mg/kg oral, single agent, 0 to 6 hours
[6] = system: hair follicle growth in mice after depilation; experiment: Wax-depilation hair follicle regrowth study; format: in vivo, C57BL6 mice; settings: twice daily oral
[7] = cited from earlier work

Compound: COc1cc(O)c2c(c1)/C=C/C[C@H](O)[C@H](O)C(=O)/C=C\C[C@H](C)OC2=O [(5z)-7-oxozeaenol]
- cell viability / cytotoxicity against HEKa (in words) ([1]; HEKa, 72 h): dose-dependently reduced cell viability

Compound: Cc1nc(Nc2ncc(C(=O)Nc3c(C)cccc3Cl)s2)cc(N2CCN(CCO)CC2)n1 [dasatinib]
- affinity for TAK1 in HEKa by in situ kinome profiling (in words) (TAK1): low affinity

Compound: C[N+]1(C)CCOC(O)(c2ccc(-c3ccc(C4(O)C[N+](C)(C)CCO4)cc3)cc2)C1.[Br-].[Br-] (centres unmarked) [hemicholinum-3]
- sensitivity of sorafenib uptake to inhibitor [2]: sensitivity of sorafenib uptake

Compound: COc1cc(CC(=O)O)ccc1O [homovanillic acid]
- sensitivity of sorafenib uptake to inhibitor [2]: sensitivity of sorafenib uptake

Compound: Cc1ccc(NC(=O)c2ccc(CN3CCN(C)CC3)cc2)cc1Nc1nccc(-c2cccnc2)n1 [imatinib]
- cell viability / cytotoxicity against HEKa (in words) ([1]; HEKa, 72 h): not sensitive

Compound: CCCN(CCC)S(=O)(=O)c1ccc(C(=O)O)cc1 [probenecid]
- influence of probenecid on cytotoxic effects of sorafenib [3]: did not antagonize the cytotoxic effects of sorafenib
- sensitivity of sorafenib uptake to inhibitor [2]: sensitivity of sorafenib uptake
- sensitivity of sorafenib accumulation to probenecid [4]: sensitive to probenecid

Compound: CNC(=O)c1cc(Oc2ccc(NC(=O)Nc3ccc(Cl)c(C(F)(F)F)c3)cc2)cc[n+]1[O-] [sorafenib N-oxide]
- intracellular accumulation / transport in HEKa (in words) (HEKa): temperature- and time-dependent transport
- cell viability / cytotoxicity against HEKa (in words) ([1]; HEKa, 72 h): cytotoxicity against HEKa

Compound: CNC(=O)c1cc(Oc2ccc(NC(=O)Nc3ccc(Cl)c(C(F)(F)F)c3)cc2)ccn1 [sorafenib]
- maximum velocity (Vmax) of uptake (HEKa; HEKa uptake): 20,900 pmol/5min/mg protein
- intracellular accumulation / transport in HEKa (in words) (HEKa): highly accumulates
- Km (HEKa; read-out: Michaelis-Menten constant (Km) of uptake, HEKa uptake): 7 µM
- area under the plasma concentration-time curve (mean ± SEM) [5]: 32500 ± 10900 ng·h/mL
- hair follicle histology (day 14, H&E) ([6]; sorafenib 60 mg/kg): reduced melanin and a gross disruption in morphology
- hair growth one week after depilation ([6]; sorafenib 60 mg/kg): hair growth was delayed
- hair growth and pigmentation at two weeks ([6]; sorafenib 60 mg/kg or imatinib 100 mg/kg): hair was less dense and lacked pigmentation
- permeability (in words) [7]: poorly permeable

Compound: CCN(CC)CCNC(=O)c1c(C)[nH]c(/C=C2\C(=O)Nc3ccc(F)cc32)c1C [sunitinib]
- affinity for TAK1 in HEKa by in situ kinome profiling (in words) (TAK1): high affinity
- cell viability / cytotoxicity against HEKa (in words) [1]: induces cytotoxicity against HEKa

Source: publication PMC4713045 (Cancer research, 2015)
